One may read the IC50 as the point on the concentration scale where inhibition reaches its midpoint.

This passage reports IC50 results from US9611252B2 (LifeSci Pharmaceuticals, Inc., priority 2013, dated 2017).

Where only a bound is given, the exact number is not on record here.

In this experiment the target is human Plasma Kallikrein (Homo sapiens (Human), UniProt P03952). The experiment in a line: In vitro enzyme inhibition of human plasma kallikrein (PFR-AMC cleavage). The format is biochemical. The settings on record: human plasma kallikrein, Pro-Phe-Arg-AMC substrate, 37° C.; read-out: hPK IC50. The method, then: The ability of the compounds disclosed herein to inhibit human plasma kallikrein activity was quantified according to the procedures below.
human Plasma Kallikrein, sequence (P03952 20-638): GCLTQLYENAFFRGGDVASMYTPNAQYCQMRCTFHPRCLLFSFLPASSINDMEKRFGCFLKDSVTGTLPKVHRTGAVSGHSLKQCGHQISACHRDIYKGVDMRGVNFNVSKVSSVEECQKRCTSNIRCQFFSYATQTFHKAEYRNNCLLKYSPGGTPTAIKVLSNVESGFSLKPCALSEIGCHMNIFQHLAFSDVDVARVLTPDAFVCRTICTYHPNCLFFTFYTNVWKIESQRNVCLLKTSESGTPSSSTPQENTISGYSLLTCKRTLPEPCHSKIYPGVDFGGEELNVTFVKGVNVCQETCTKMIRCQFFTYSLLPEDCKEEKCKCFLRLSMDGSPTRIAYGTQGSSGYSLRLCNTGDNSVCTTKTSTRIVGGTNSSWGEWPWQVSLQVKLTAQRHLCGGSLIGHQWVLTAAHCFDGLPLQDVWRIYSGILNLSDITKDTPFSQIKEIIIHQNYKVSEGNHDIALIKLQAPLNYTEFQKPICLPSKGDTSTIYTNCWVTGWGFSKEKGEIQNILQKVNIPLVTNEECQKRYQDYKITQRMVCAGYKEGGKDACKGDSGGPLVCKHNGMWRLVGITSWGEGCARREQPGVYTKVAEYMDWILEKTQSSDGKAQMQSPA
A 10 mM solution of the test compound was made in DMSO. […] A control tube containing only DMSO is included. 16 μL of each compound test solution was combined with 384 μL of assay buffer (50 mM Tris-HCl pH 7.5, 150 mM NaCl, 0.01% Triton X-100) to yield a “4× test compound buffer stock”.
These solutions are hereby referred to as 4×hPK and 2×PFR-AMC, respectively.
50 μL was removed from this mixture and placed into duplicate wells on a Microfluor 1Black U-bottom microtiter plate (Thermo Scientific). This plate was incubated for 5 minutes at 37° C. To each well, 50 μL of pre-warmed 2×PFR-AMC was added to start the enzymatic reaction. Cleavage of PFR-AMC was monitored in a Biotek Synergy H4 reader set at 37° C. Readings are taken every 43 seconds for 1 hour. […] The IC50 is calculated using the Gen5 (Biotek Instruments).
The ability of the compounds in Table 3 to inhibit human plasma kallikrein activity was determined.
`Cc1nc(N)ccc1CNC(=O)c1ccnc(Cc2cc(Cl)c3ncc(Cl)cc3c2)c1` [Example 101, N-((6-amino-2-methylpyridin-3-yl)methyl)-2-((3,8-dichloroquinolin-6-yl)methyl)isonicotinamide]: the IC50 was below 100 nM.

Take `Cc1cc(N)nc(C)c1CNC(=O)c1ccnc(Cc2ccc3ncc(Cl)cc3c2F)c1` [Example 102, N-((6-amino-2,4-dimethylpyridin-3-yl)methyl)-2-((3-chloro-5-fluoroquinolin-6-yl)methyl)isonicotinamide]: the IC50 is below 100 nM.

`Cc1nc(N)ccc1CNC(=O)c1ccnc(Cc2ccc3ncc(Cl)cc3c2F)c1` [Example 103, N-((6-amino-2-methylpyridin-3-yl)methyl)-2-((3-chloro-5-fluoroquinolin-6-yl)methyl)isonicotinamide]: the IC50 is below 100 nM.

In the case of `Cc1cc(C(=O)NCc2c(C)cc(N)nc2C)cc(Cc2ccc3ncc(Cl)cc3c2)n1` [Example 104, N-((6-amino-2,4-dimethylpyridin-3-yl)methyl)-2-((3-chloroquinolin-6-yl)methyl)-6-methylisonicotinamide], the IC50 is below 100 nM.

Regarding `Cc1cc(N)nc(C)c1CNC(=O)c1ccnc(Cn2ncc3cc(Cl)ccc32)c1` [Example 105, N-((6-amino-2,4-dimethylpyridin-3-yl)methyl)-2-((5-chloro-1H-indazol-1-yl)methyl)isonicotinamide], the IC50 was below 100 nM.

For the compound `Cc1cc(N)nc(C)c1CNC(=O)c1ccnc(Cn2cc3cc(Cl)ccc3n2)c1` [Example 106, N-((6-amino-2,4-dimethylpyridin-3-yl)methyl)-2-((5-chloro-2H-indazol-2-yl)methyl)isonicotinamide], the IC50 is below 100 nM.

Turning to `Cc1ccc2nn(Cc3cc(C(=O)NCc4c(C)cc(N)nc4C)ccn3)cc2c1` [Example 107, N-((6-amino-2,4-dimethylpyridin-3-yl)methyl)-2-((5-methyl-2H-indazol-2-yl)methyl)isonicotinamide], the IC50 fell in the range of 100 to 1000 nM.

For `Cc1ccc2c(cnn2Cc2cc(C(=O)NCc3c(C)cc(N)nc3C)ccn2)c1` [Example 108], the IC50 was below 100 nM.

With `Cc1ccc2nc(S(C)(=O)=O)c(Cc3cc(C(=O)NCc4cc5c(Cl)c[nH]c5cc4F)ccn3)cc2c1` [Example 109, N-((3-chloro-6-fluoro-1H-indol-5-yl)methyl)-2-((6-methyl-2-(methylsulfonyl)quinolin-3-yl)methyl)isonicotinamide], the IC50 lay within 100 to 1000 nM.

Consider `Cc1ccc2cc(Cc3cc(C(=O)NCc4ccc(N)nc4C)ccn3)ccc2n1` [Example 112, N-((6-amino-2-methylpyridin-3-yl)methyl)-2-((2-methylquinolin-6-yl)methyl)isonicotinamide], for which the IC50 is below 100 nM.

Take `Cc1cc(N)nc(C)c1CNC(=O)c1ccnc(Cc2cnc3ccc(F)cc3c2)c1` [Example 119, N-((6-amino-2,4-dimethylpyridin-3-yl)methyl)-2-((6-fluoroquinolin-3-yl)methyl)isonicotinamide]: the IC50 was below 100 nM.

As for `O=C(NCc1cc2c(Cl)c[nH]c2cc1F)c1ccnc(Cc2cnc3ccc(F)cc3c2)c1` [Example 120, N-((3-chloro-6-fluoro-1H-indol-5-yl)methyl)-2-((6-fluoroquinolin-3-yl)methyl)isonicotinamide], the IC50 is below 100 nM.

Take `Cc1nc(N)ccc1CNC(=O)c1ccnc(Cc2cnc3ccc(F)cc3c2)c1` [Example 121, N-((6-amino-2-methylpyridin-3-yl)methyl)-2-((6-fluoroquinolin-3-yl)methyl)isonicotinamide]: the IC50 was below 100 nM.

As for `Cc1cc(N)nc(C)c1CNC(=O)c1ccnc(Cc2cnc3cc(F)ccc3c2)c1` [Example 122, N-((6-amino-2,4-dimethylpyridin-3-yl)methyl)-2-((7-fluoroquinolin-3-yl)methyl)isonicotinamide], the IC50 is below 100 nM.

With `O=C(NCc1cc2c(Cl)c[nH]c2cc1F)c1ccnc(Cc2cnc3cc(F)ccc3c2)c1` [Example 123, N-((3-chloro-6-fluoro-1H-indol-5-yl)methyl)-2-((7-fluoroquinolin-3-yl)methyl)isonicotinamide], the IC50 was below 100 nM.

Regarding `Nc1nccc2cc(CNC(=O)c3ccnc(Cc4cnc5cc(F)ccc5c4)c3)ccc12` [Example 124, N-((1-aminoisoquinolin-6-yl)methyl)-2-((7-fluoroquinolin-3-yl)methyl)isonicotinamide], the IC50 was below 100 nM.

For `O=C(NCc1cc2c(Cl)c[nH]c2cc1F)c1ccnc(Cc2cnc3ccccc3c2)c1` [Example 125, N-((3-chloro-6-fluoro-1H-indol-5-yl)methyl)-2-(quinolin-3-ylmethyl)isonicotinamide], the IC50 is below 100 nM.

As to `O=C(NCc1cc2c(Cl)c[nH]c2cc1F)c1ccnc(Cc2cnc3ccc(Cl)cc3c2)c1` [Example 126, N-((3-chloro-6-fluoro-1H-indol-5-yl)methyl)-2-((6-chloroquinolin-3-yl)methyl)isonicotinamide], the IC50 is below 100 nM.

Regarding `Cc1ccc2ccc(Cc3cc(C(=O)NCc4ccc5c(N)nccc5c4)ccn3)cc2n1` [Example 127, N-((1-aminoisoquinolin-6-yl)methyl)-2-((2-methylquinolin-7-yl)methyl)isonicotinamide], the IC50 was below 100 nM.

Turning to `Cc1ccc2ccc(Cc3cc(C(=O)NCc4cc5c(Cl)c[nH]c5cc4F)ccn3)cc2n1` [Example 128, N-((3-chloro-6-fluoro-1H-indol-5-yl)methyl)-2-((2-methylquinolin-7-yl)methyl)isonicotinamide], the IC50 was below 100 nM.

Regarding `Cc1ccc2ccc(Cc3cc(C(=O)NCc4c(C)cc(N)nc4C)ccn3)cc2n1` [Example 129, N-((6-amino-2,4-dimethylpyridin-3-yl)methyl)-2-((2-methylquinolin-7-yl)methyl)isonicotinamide], the IC50 was in the range of 100 to 1000 nM.

As to `Cc1cc(N)nc(C)c1CNC(=O)c1ccnc(Cc2ccc3nc(C#N)ccc3c2)c1` [Example 131, N-(6-amino-2,4-dimethyl-pyridin-3-ylmethyl)-2-(2-cyano-quinolin-6-ylmethyl)-isonicotinamide], the IC50 is below 100 nM.

With `Cc1cc2cc(Cc3cc(C(=O)NCc4cc5c(Cl)c[nH]c5cc4F)ccn3)ccc2cn1` [Example 133, N-((3-chloro-6-fluoro-1H-indol-5-yl)methyl)-2-((3-methylisoquinolin-6-yl)methyl)isonicotinamide], the IC50 was below 100 nM.

Consider `CS(=O)(=O)c1ccc2cc(Cc3cc(C(=O)NCc4ccc5c(N)nccc5c4)ccn3)ccc2n1` [Example 134, N-((1-aminoisoquinolin-6-yl)methyl)-2-((2-(methylsulfonyl)quinolin-6-yl)methyl)isonicotinamide], for which the IC50 fell in the range of 100 to 1000 nM.

For the compound `CS(=O)(=O)c1ccc2cc(Cc3cc(C(=O)NCc4cc5c(Cl)c[nH]c5cc4F)ccn3)ccc2n1` [Example 135, N-((3-chloro-6-fluoro-1H-indol-5-yl)methyl)-2-((2-(methylsulfonyl)quinolin-6-yl)methyl)isonicotinamide], the IC50 fell in the range of 100 to 1000 nM.

Regarding `N#Cc1ccnc2ccc(Cc3cc(C(=O)NCc4ccc5c(N)nccc5c4)ccn3)cc12` [Example 136, N-((1-aminoisoquinolin-6-yl)methyl)-2-((4-cyanoquinolin-6-yl)methyl)isonicotinamide], the IC50 was below 100 nM.
